For orientation: IC50 means the concentration needed to halve the response being measured. The low end stands for inhibition by little substance, the high end for a need for much substance.

Results on one compound are retold here after patent US8168656B2, “Indoleacetic acid and indenacetic acid derivatives as therapeutic agents with reduced gastrointestinal toxicity” (Vanderbilt University, priority 2009, dated 2012).

Bounds are passed on as bounds.

Experiment [1] has as its target T1, wild type mCOX-2 (Mus musculus, UniProt Q05769).
T1 construct: made in house; host or cells: Sf9 insect cells (baculovirus, pVL1393)
T1 sequence (Q05769 18-604): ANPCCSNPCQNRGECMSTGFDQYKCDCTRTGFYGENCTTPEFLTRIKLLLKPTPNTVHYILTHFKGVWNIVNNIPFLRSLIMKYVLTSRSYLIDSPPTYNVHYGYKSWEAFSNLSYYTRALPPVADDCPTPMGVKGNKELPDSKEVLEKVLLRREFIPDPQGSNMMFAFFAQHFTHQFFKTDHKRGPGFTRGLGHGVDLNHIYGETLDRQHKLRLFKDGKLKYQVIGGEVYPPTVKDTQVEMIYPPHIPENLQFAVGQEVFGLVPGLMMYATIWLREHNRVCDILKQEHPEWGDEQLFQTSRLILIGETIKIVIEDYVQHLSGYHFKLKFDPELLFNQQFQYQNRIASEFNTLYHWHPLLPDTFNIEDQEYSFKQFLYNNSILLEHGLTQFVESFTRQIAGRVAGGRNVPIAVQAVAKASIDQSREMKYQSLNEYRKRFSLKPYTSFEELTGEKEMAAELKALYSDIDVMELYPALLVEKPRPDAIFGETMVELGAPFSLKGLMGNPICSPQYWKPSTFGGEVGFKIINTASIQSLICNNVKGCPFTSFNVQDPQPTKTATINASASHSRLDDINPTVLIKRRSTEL
The experiment in a line: Time-dependent IC50 COX inhibition assay. Type of experiment: biochemical, murine. The note with it: 20 min pre-incubation, then 50 μM AA for 30 s. The procedure: (§1) These mutated genes were used to assemble baculoviral constructs for large-scale expression in Sf9 cells. Purification of the expressed COX-2 protein was performed through traditional cellular fractionation and classical column chromatography. Activity or inhibition assays were performed in 100 mM Tris-HCl buffer containing 500 μM phenol, with hematin-reconstituted protein. Quantification of cyclooxygenase activity was performed by monitoring substrate (arachidonate or oxygen) consumption in a thermostatted cuvette at 37° C. using a polarographic electrode with a 5300 oxygen monitor (Yellow Springs Instrument Co. Inc., Yellow Springs, Ohio, United States of America). All inhibitors and substrates were solubilized in dimethyl sulfoxide (DMSO). Activity or inhibition assays were performed in 100 mM Tris-HCl buffer containing 500 μM phenol, with hematin-reconstituted protein. Maximal reaction velocity data were obtained from the linear portion of the oxygen uptake curves, and the data were analyzed by nonlinear regression with Prism 4.0 (GraphPad Software, San Diego, Calif., United States of America).
(§2) Time-dependent inhibition reactions were performed by pre-incubating the inhibitor and enzyme for 17 minutes at 25° C., followed by 3 minutes at 37° C. prior to the addition of 50 μM [1-^14C]-AA for 30 seconds at 37° C. Assays were terminated and analyzed for substrate consumption by thin layer chromatography as previously described (Kalgutkar et al., 2000a).
Maximal reaction velocity data were obtained from the linear portion of the oxygen uptake curves, and the data were analyzed by nonlinear regression. Instantaneous inhibition assays were performed with substrate and inhibitor added prior the initiation of the reaction by addition of protein. Time-dependent screening assays were performed by pre-incubating the inhibitor and enzyme for 17 minutes at 25° C., followed by 3 minutes at 37° C. prior to the addition of 50 μM [1-^14C]-arachidonic acid (AA) for 30 seconds at 37° C.
Assays were terminated and analyzed for substrate consumption by thin layer chromatography. […] Time-dependent COX inhibition reactions were pre-incubated at 37° C. for varying lengths of time (0-30 minutes) with various concentrations of inhibitor. All reactions were performed with [1-^14C]-AA for 30 seconds at 37° C.; reactions were terminated and analyzed as described above.
The COX reaction was allowed to proceed for 30 seconds before termination.

The target of experiment [2] is T2, wild type oCOX-1 (Ovis aries, UniProt P05979).
T2 construct: Ram seminal vesicles were purchased from Oxford Biomedical Research; tissue Oxford Biomedical Research; host or cells: ram seminal vesicles
T2 sequence (P05979 25-600): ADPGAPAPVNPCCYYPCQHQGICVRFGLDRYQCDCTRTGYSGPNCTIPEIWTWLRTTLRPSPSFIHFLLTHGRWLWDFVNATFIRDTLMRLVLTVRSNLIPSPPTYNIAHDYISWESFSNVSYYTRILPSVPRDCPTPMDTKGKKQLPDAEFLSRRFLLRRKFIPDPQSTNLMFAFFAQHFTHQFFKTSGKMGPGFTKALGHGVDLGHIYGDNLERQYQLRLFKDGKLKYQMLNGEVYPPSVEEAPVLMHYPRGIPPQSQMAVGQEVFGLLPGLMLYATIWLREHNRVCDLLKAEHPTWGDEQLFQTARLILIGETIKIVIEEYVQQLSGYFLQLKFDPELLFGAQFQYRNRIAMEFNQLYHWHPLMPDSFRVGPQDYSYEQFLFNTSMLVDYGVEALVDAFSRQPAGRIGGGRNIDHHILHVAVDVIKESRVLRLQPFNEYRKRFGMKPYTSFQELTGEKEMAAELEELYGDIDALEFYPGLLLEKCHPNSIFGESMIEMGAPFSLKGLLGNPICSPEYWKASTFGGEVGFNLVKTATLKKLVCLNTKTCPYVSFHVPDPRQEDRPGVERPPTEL
The experiment in a line: Time-dependent IC50 COX inhibition assay. Type of experiment: biochemical, ovine. The procedure: as §1, §2
Maximal reaction velocity data were obtained from the linear portion of the oxygen uptake curves, and the data were analyzed by nonlinear regression. Instantaneous inhibition assays were performed with substrate and inhibitor added prior the initiation of the reaction by addition of protein. […]
Assays were terminated and analyzed for substrate consumption by thin layer chromatography. […] All reactions were performed with [1-^14C]-AA for 30 seconds at 37° C.; reactions were terminated and analyzed as described above. […]

Regarding `COc1ccc2c(c1)c(CC(=O)O)cn2C(=O)c1ccc(Cl)cc1` [DM-INDO, 2-Des-methylindomethacin], the half-inhibitory concentration (IC50) in experiment [1] was 4 µM; in experiment [2] (wild type oCOX-1, 20 min pre-incubation, then 50 μM AA for 30 s), more than 16 µM. Moreover, the “inhibition of ovine COX-1” value in experiment [2] (concentrations up to 16 μM) is given as “does not appear to be inhibited at all”. Further, the “inhibition in the time-dependent IC50 assay” value in experiment [2] (wild type oCOX-1) was “less than 20%”.
